Drawing on ChEMBL document CHEMBL6134770, “Miniaturized click chemistry and direct screening facilitate the discovery of triazole piperazine SARS-CoV-2 Mpro inhibitors with improved metabolic stability” (RSC Med Chem, 2025), this text covers inhibition for 27 compounds.

This assay has as its system Severe acute respiratory syndrome coronavirus 2. Briefly: Inhibition of SARS-CoV-2 Main protease using MCA-AVLQSGFR-Lys(Dnp)-Lys-NH2 as substrate at 5 uM preincubated for 10 mins followed by substrate addition and measured after 10 mins by FRET assay relative to control. As to conditions: time 20.0 min.

The structures appear in SMILES notation. Active and inactive are the calls of the source. No rule for the calls is given here.

For `O=C(c1cccnc1)N1CCN(c2ccc(Cl)c(Cl)c2)[C@H](c2cn(Cc3ccc(Cl)cc3)nn2)C1`, the inhibition entry is “Active”. The result for `N#Cc1ccccc1Cn1cc([C@@H]2CN(C(=O)c3cccnc3)CCN2c2ccc(Cl)c(Cl)c2)nn1` reads “Active”; that for `N#Cc1ccc(Cn2cc([C@@H]3CN(C(=O)c4cccnc4)CCN3c3ccc(Cl)c(Cl)c3)nn2)cc1`, “Active”; that for `COc1ccccc1Cn1cc([C@@H]2CN(C(=O)c3cccnc3)CCN2c2ccc(Cl)c(Cl)c2)nn1`, “Active”. With `O=C(Cn1cc([C@@H]2CN(C(=O)c3cccnc3)CCN2c2ccc(Cl)c(Cl)c2)nn1)NC1CC1` the entry was “Active”; with `Cc1ccccc1Cn1cc([C@@H]2CN(C(=O)c3cccnc3)CCN2c2ccc(Cl)c(Cl)c2)nn1`, “Active”; with `CCOC(=O)Cn1cc([C@@H]2CN(C(=O)c3cccnc3)CCN2c2ccc(Cl)c(Cl)c2)nn1`, “Active”. In the case of `O=C(Cn1cc([C@@H]2CN(C(=O)c3cccnc3)CCN2c2ccc(Cl)c(Cl)c2)nn1)NC1CCOCC1`, the inhibition result is “Active”. Turning to `COc1cccc(Cn2cc([C@@H]3CN(C(=O)c4cccnc4)CCN3c3ccc(Cl)c(Cl)c3)nn2)c1`, the inhibition result is “Active”. `O=C(c1cccnc1)N1CCN(c2ccc(Cl)c(Cl)c2)[C@H](c2cn(Cc3ccc(C(F)(F)F)nc3)nn2)C1`: the inhibition entry was “Active”.

For the compound `O=C(Cn1cc([C@@H]2CN(C(=O)c3cccnc3)CCN2c2ccc(Cl)c(Cl)c2)nn1)Nc1ccc(C(F)(F)F)cc1`, the inhibition entry is “inactive”. The result for `O=C(c1cccnc1)N1CCN(c2ccc(Cl)c(Cl)c2)[C@H](c2cn(Cc3cccc(Cl)c3)nn2)C1` reads “Active”; that for `O=C(c1cccnc1)N1CCN(c2ccc(Cl)c(Cl)c2)[C@H](c2cn(Cc3ccc([N+](=O)[O-])cc3)nn2)C1`, “Active”; that for `O=C(Cn1cc([C@@H]2CN(C(=O)c3cccnc3)CCN2c2ccc(Cl)c(Cl)c2)nn1)Nc1ccc(Br)cc1`, “inactive”. Turning to `O=C(c1cccnc1)N1CCN(c2ccc(Cl)c(Cl)c2)[C@H](c2cn(CCc3ccccc3)nn2)C1`, the inhibition result is “Active”.

Regarding `O=C(c1cccnc1)N1CCN(c2ccc(Cl)c(Cl)c2)[C@H](c2cn(Cc3cccc(F)c3)nn2)C1`, the inhibition result was “Active”. With `O=C(Cn1cc([C@@H]2CN(C(=O)c3cccnc3)CCN2c2ccc(Cl)c(Cl)c2)nn1)NC1CCC1` the entry was “Active”; with `O=C(c1cccnc1)N1CCN(c2ccc(Cl)c(Cl)c2)[C@H](c2cn(Cc3ccc(F)cc3)nn2)C1`, “Active”; with `O=C(c1cccnc1)N1CCN(c2ccc(Cl)c(Cl)c2)[C@H](c2cn(Cc3ccc(C(F)(F)F)cc3)nn2)C1`, “inactive”. On to `O=C(c1cccnc1)N1CCN(c2ccc(Cl)c(Cl)c2)[C@H](c2cn(Cc3ccc4ccccc4c3)nn2)C1`, for which the inhibition result was “Active”.

For the compound `CCOC(=O)c1ccc(Cn2cc([C@@H]3CN(C(=O)c4cccnc4)CCN3c3ccc(Cl)c(Cl)c3)nn2)cc1`, the inhibition result is “Active”. Take `O=C(c1cccnc1)N1CCN(c2ccc(Cl)c(Cl)c2)[C@H](c2cn(CCCc3ccccc3)nn2)C1`: the inhibition entry is “Active”. With `O=C(c1cccnc1)N1CCN(c2ccc(Cl)c(Cl)c2)[C@H](c2cn(Cc3cccc([N+](=O)[O-])c3)nn2)C1` the entry was “Active”; with `O=C(c1cccnc1)N1CCN(c2ccc(Cl)c(Cl)c2)[C@H](c2cn(Cc3ccc(F)c(Cl)c3)nn2)C1`, “Active”. With `Cc1cccc(Cn2cc([C@@H]3CN(C(=O)c4cccnc4)CCN3c3ccc(Cl)c(Cl)c3)nn2)c1` the entry was “Active”. With `COC(=O)c1cccc(-n2cc([C@@H]3CN(C(=O)c4cccnc4)CCN3c3ccc(Cl)c(Cl)c3)nn2)c1` the entry was “Active”; with `NC(=O)c1ccc(-n2cc([C@@H]3CN(C(=O)c4cccnc4)CCN3c3ccc(Cl)c(Cl)c3)nn2)cc1`, “Active”.
